Earlier results, collected in patent US20130023494A1, “MODULATORS OF THE GPR119 RECEPTOR AND THE TREATMENT OF DISORDERS RELATED THERETO” (ARENA PHARMACEUTICALS, INC., priority 2010, published 2013).

Key:
[1] = system: human patients suffering with type 2 diabetes; settings: oral administration, human patients with type 2 diabetes; cited from earlier work
GPR119 = settings: combined administration with a DPP-IV inhibitor, compared with either agent alone; cited from earlier work
humans = settings: cited from earlier work

N#C[C@@H]1CCCN1C(=O)CNC12CC3CC(CC(O)(C3)C1)C2 [vildagliptin, 1-[2-(3-hydroxyadamant-1-ylamino)acetyl]pyrrolidine-2(S)-carbonitrile]
fasting glucose, postprandial glucose excursion and HbA1c levels [1]: reduce fasting glucose and postprandial glucose excursion in association with significantly reduced HbA1c levels

N[C@@H](CC(=O)N1CCn2c(nnc2C(F)(F)F)C1)Cc1cc(F)c(F)cc1F [sitagliptin, 3(R)-amino-1-[3-(trifluoromethyl)-5,6,7,8-tetrahydro[1,2,4]triazolo[4,3-a]pyrazin-7-yl]-4-(2,4,5-trifluorophenyl)butan-1-one]
fasting glucose, postprandial glucose excursion and HbA1c levels [1]: reduce fasting glucose and postprandial glucose excursion in association with significantly reduced HbA1c levels

CC(C)c1noc(C2CCN(c3ncnc(Nc4ccc(S(C)(=O)=O)cc4F)c3[N+](=O)[O-])CC2)n1 [Compound B111, (2-Fluoro-4-methanesulfonyl-phenyl)-{6-[4-(3-isopropyl-[1,2,4]oxadiazol-5-yl)-piperidin-1-yl]-5-nitro-pyrimidin-4-yl}-amine]
glucose tolerance (GPR119): improved glucose tolerance to a significantly greater degree than either agent alone
plasma GLP-1 levels (GPR119): acutely increased plasma GLP-1 levels

PYY3-36: generated from PYY1-36 by cleavage of the N-terminal Tyr and Pro residues by dipeptidyl peptidase IV; Y2R selective agonist
reduction of food intake (humans; human studies, infusion, over 24 hours): 33%
time of decline to basal levels (humans; human, after infusion): ≤ 30 min
time to peak serum levels of PYY3-36 (humans; human, infusion to reach normal postprandial circulatory concentrations): ≤ 15 min
